# Data as given in patent publication US12139477B2, “Compounds, salts thereof and methods for treatment of diseases” (ACADIA PHARMACEUTICALS INC., priority 2017, dated 2024).
# Molecular target: 5HT2A (Homo sapiens, UniProt P28223)
# Assay: Receptor Selection and Amplification (R-SAT) functional assay
# Type: cell-based
# Parameters: expressed in transfected cells; host or cells: NIH3T3 cells, pSI mammalian expression vector
# Conditions: NIH3T3 cells; Ki from IC50 by Cheng and Prussoff; read-out: 5-HT2a (pKi) (R-SAT) (converted)
# Description: Receptor Selection and Amplification (R-SAT) Assays. […] The IC50 determined in the RSAT assay was converted into a Ki value using the method of Cheng and Prussoff, Biochem Pharmacol., 1973 Dec. 1; 22(23):3099-108. pKi is the negative of the log(Ki).
# Sequence of 5HT2A (P28223 whole entry): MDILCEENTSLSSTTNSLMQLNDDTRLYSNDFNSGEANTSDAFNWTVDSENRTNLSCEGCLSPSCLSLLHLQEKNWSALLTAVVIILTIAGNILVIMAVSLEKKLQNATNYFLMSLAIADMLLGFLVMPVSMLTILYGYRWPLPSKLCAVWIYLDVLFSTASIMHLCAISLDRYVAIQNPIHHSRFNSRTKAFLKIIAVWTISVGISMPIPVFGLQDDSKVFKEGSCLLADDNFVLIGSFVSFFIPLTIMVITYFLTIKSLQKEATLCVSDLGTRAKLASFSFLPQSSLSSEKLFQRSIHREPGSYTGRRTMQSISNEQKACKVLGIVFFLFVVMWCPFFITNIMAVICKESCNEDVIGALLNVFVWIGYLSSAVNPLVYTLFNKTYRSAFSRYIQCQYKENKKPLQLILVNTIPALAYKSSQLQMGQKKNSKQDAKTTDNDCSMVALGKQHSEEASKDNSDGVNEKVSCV
row,Ki [nM],Compound
1,79.4,CC(C)COc1ccc(CNC(=O)N(Cc2ccc(C(F)(F)F)cc2Cl)C2CCN(C)CC2)cc1 [Example 67]
2,20,CC(C)COc1ccc(CNC(=O)N(Cc2ccc(C(F)(F)F)cc2F)C2CCN(C)CC2)cc1 [Example 68]
3,631,CC(C)COc1ccc(CNC(=O)N(Cc2ccc(F)cc2N(C)C)C2CCN(C)CC2)cc1 [Example 69]
4,50.1,CC(C)COc1ccc(CNC(=O)N(Cc2cc(F)c(F)cc2F)C2CCN(C)CC2)cc1 [Example 70]
5,12.6,CC(C)COc1ccc(CNC(=O)N(Cc2c(F)cc(Cl)cc2F)C2CCN(C)CC2)cc1 [Example 71]
6,15.8,CC(C)COc1ccc(CNC(=O)N(Cc2c(F)cccc2F)C2CCN(C)CC2)cc1 [Example 72]
7,6.31,"[2H]C([2H])([2H])Oc1ccc(CNC(=O)N(Cc2ccc(F)cc2F)C2CCN(C)CC2)cc1 [Example 73, 1-[(2,4-difluorophenyl)methyl]-3-{[4-(^2H3)methoxyphenyl]methyl}-1-(1-methylpiperidin-4-yl)urea]"
8,39.8,"COc1cc(OC(C)C)ccc1CNC(=O)N(Cc1ccc(F)cc1F)C1CCN(C)CC1 [Example 74, 1-[(2,4-difluorophenyl)methyl]-3-{[2-methoxy-4-(propan-2-yloxy)phenyl]methyl}-1-(1-methylpiperidin-4-yl)urea]"
9,79.4,"CN1CCC(N(Cc2ccc(F)cc2F)C(=O)NCc2ccc3[nH]cnc3c2)CC1 [Example 77, 3-[(1H-1,3-benzodiazol-5-yl)methyl]-1-[(2,4-difluorophenyl)methyl]-1-(1-methylpiperidin-4-yl)urea; Trifluoroacetic Acid]"
10,6.31,"CC(C)Oc1ccc(CNC(=O)N(Cc2ccc(F)cc2F)C2CCCN(C)CC2)cc1 (centres unmarked) [Example 78, 1-[(2,4-difluorophenyl)methyl]-1-(1-methylazepan-4-yl)-3-{[4-(propan-2-yloxy)phenyl]methyl}urea; Trifluoroacetic Acid]"
11,2.51,"CC(C)Oc1ccc(CNC(=O)N(Cc2ccc(F)cc2F)[C@@H]2CCN3CCC[C@H]3C2)cc1 [Example 80, 1-[(7R,8aS)-octahydroindolizin-7-yl]-1-[(2,4-difluorophenyl)methyl]-3-{[4-(propan-2-yloxy)phenyl]methyl}urea; Trifluoroacetic Acid]"
12,158,"COc1cc(F)c(F)cc1CN(C(=O)NCc1ccc(OC(C)C)cc1)C1CCNCC1 [Example 83, 3-[(4,5-difluoro-2-methoxyphenyl)methyl]-3-(piperidin-4-yl)-1-{[4-(propan-2-yloxy)phenyl]methyl}urea; Trifluoroacetic Acid]"
13,63.1,"CN1CCC(N(Cc2ccc(F)cc2F)C(=O)NCc2ccc(COCCO)c(F)c2)CC1 [Example 88, 1-[(2,4-difluorophenyl)methyl]-3-({3-fluoro-4-[(2-hydroxyethoxy)methyl]phenyl}methyl)-1-(1-methylpiperidin-4-yl)urea; Trifluoroacetic Acid]"
14,12.6,"CC(C)COc1ccc(CNC(=O)N(Cc2ccc(C(F)(F)F)cc2O)C2CCN(C)CC2)cc1 [Example 90, 1-{[2-hydroxy-4-(trifluoromethyl)phenyl]methyl}-1-(1-methylpiperidin-4-yl)-3-{[4-(2-methylpropoxy)phenyl]methyl}urea; Trifluoroacetic Acid]"
15,15.8,"COc1cc(F)ccc1CN(C(=O)NCc1ccc(OCC(C)C)cc1)C1CCN(C)CC1 [Example 91, 1-[(4-fluoro-2-methoxyphenyl)methyl]-1-(1-methylpiperidin-4-yl)-3-{[4-(2-methylpropoxy)phenyl]methyl}urea; Trifluoroacetic Acid]"
16,39.8,"CN1CCC(N(Cc2ccc(F)cc2F)C(=O)NCc2ccc3[nH]ncc3c2)CC1 [Example 93, 1-[(2,4-difluorophenyl)methyl]-3-[(1H-indazol-5-yl)methyl]-1-(1-methylpiperidin-4-yl)urea; Trifluoroacetic Acid]"
17,10,"COCCCOc1ccc(CNC(=O)N(Cc2ccc(F)cc2F)C2CCN(C)CC2)cc1 [Example 96, 1-[(2,4-difluorophenyl)methyl]-3-{[4-(3-methoxypropoxy)phenyl]methyl}-1-(1-methylpiperidin-4-yl)urea; Trifluoroacetic Acid]"

row,Ki [nM],Compound
1,39.8,"CN1CCC(N(Cc2ccc(F)cc2F)C(=O)NCc2ccc([N+](=O)[O-])cc2F)CC1 [Example 97, 1-[(2,4-difluorophenyl)methyl]-3-[(2-fluoro-4-nitrophenyl)methyl]-1-(1-methylpiperidin-4-yl)urea; Trifluoroacetic Acid]"
2,79.4,"CN1CCC(N(Cc2ccc(F)cc2F)C(=O)NCc2ccc(F)cc2OC(F)(F)F)CC1 [Example 99, 1-[(2,4-difluorophenyl)methyl]-3-{[4-fluoro-2-(trifluoromethoxy)phenyl]methyl}-1-(1-methylpiperidin-4-yl)urea; Trifluoroacetic Acid]"
3,20,"CN1CCC(N(Cc2ccc(F)cc2)C(=O)NCc2ccc(F)cc2F)CC1 [Example 100, 3-[(2,4-difluorophenyl)methyl]-1-[(4-fluorophenyl)methyl]-1-(1-methylpiperidin-4-yl)urea; Trifluoroacetic Acid]"
4,79.4,"CC(C)COc1ccc(CNC(=O)N(Cc2ccc(F)cc2OC(F)F)C2CCN(C)CC2)cc1 [Example 101, 1-{[2-(difluoromethoxy)-4-fluorophenyl]methyl}-1-(1-methylpiperidin-4-yl)-3-{[4-(2-methylpropoxy)phenyl]methyl}urea; Trifluoroacetic Acid]"
5,251,"CC(C)COc1ccc(CNC(=O)N(Cc2ccc(F)cc2OC(F)(F)F)C2CCN(C)CC2)cc1 [Example 103, 1-{[4-fluoro-2-(trifluoromethoxy)phenyl]methyl}-1-(1-methylpiperidin-4-yl)-3-{[4-(2-methylpropoxy)phenyl]methyl}urea; Trifluoroacetic Acid]"
6,39.8,"Cc1cc(F)ccc1CN(C(=O)NCc1ccc(OCC(C)C)cc1)C1CCN(C)CC1 [Example 104, 1-[(4-fluoro-2-methylphenyl)methyl]-1-(1-methylpiperidin-4-yl)-3-{[4-(2-methylpropoxy)phenyl]methyl}urea; Trifluoroacetic Acid]"
7,100,"COc1ccc(CN(C(=O)NCc2ccc(OCC(C)C)cc2)C2CCN(C)CC2)c(Cl)c1 [Example 105, 1-[(2-chloro-4-methoxyphenyl)methyl]-1-(1-methylpiperidin-4-yl)-3-{[4-(2-methylpropoxy)phenyl]methyl}urea; Trifluoroacetic Acid]"
8,50.1,"CC(C)Oc1ccc(CNC(=O)N(Cc2ccc(Cl)cc2Cl)C2CCN(C)CC2)cc1 [Example 106, 1-[(2,4-dichlorophenyl)methyl]-1-(1-methylpiperidin-4-yl)-3-{[4-(propan-2-yloxy)phenyl]methyl}urea; Trifluoroacetic Acid]"
9,79.4,"CC(C)Oc1ccc(CNC(=O)N(Cc2ccc(Cl)cc2Cl)C2CCNCC2)cc1 [Example 108, 1-[(2,4-dichlorophenyl)methyl]-1-(piperidin-4-yl)-3-{[4-(propan-2-yloxy)phenyl]methyl}urea; Trifluoroacetic Acid]"
10,25.1,"CC(C)COc1ccc(CNC(=O)N(Cc2ccc(F)cc2Cl)C2CCNCC2)cc1 [Example 109, 1-[(2-chloro-4-fluorophenyl)methyl]-3-{[4-(2-methylpropoxy)phenyl]methyl}-1-(piperidin-4-yl)urea; Trifluoroacetic Acid]"
11,25.1,"CC(C)Oc1ccc(CNC(=O)N(Cc2ccc(F)cc2Cl)C2CCNCC2)cc1 [Example 110, 1-[(2-chloro-4-fluorophenyl)methyl]-1-(piperidin-4-yl)-3-{[4-(propan-2-yloxy)phenyl]methyl}urea; Trifluoroacetic Acid]"
12,79.4,"CC(C)COc1ccc(CNC(=O)N(Cc2ccc(Cl)cc2Cl)C2CCNCC2)cc1 [Example 111, 1-[(2,4-dichlorophenyl)methyl]-3-{[4-(2-methylpropoxy)phenyl]methyl}-1-(piperidin-4-yl)urea; Trifluoroacetic Acid]"
13,39.8,"Cc1ccc(F)c(CN(C(=O)NCc2ccc(OC(C)C)cc2)C2CCN(C)CC2)c1F [Example 112, 1-[(2,6-difluoro-3-methylphenyl)methyl]-1-(1-methylpiperidin-4-yl)-3-{[4-(propan-2-yloxy)phenyl]methyl}urea; Trifluoroacetic Acid]"
14,126,"CC(C)Oc1ccc(CNC(=O)N(Cc2c(F)ccc(F)c2F)C2CCN(C)CC2)cc1 [Example 113, 1-(1-methylpiperidin-4-yl)-3-{[4-(propan-2-yloxy)phenyl]methyl}-1-[(2,3,6-trifluorophenyl)methyl]urea; Trifluoroacetic Acid]"
15,6.31,"Cc1c(F)ccc(CN(C(=O)NCc2ccc(OC(C)C)cc2)C2CCN(C)CC2)c1F [Example 114, 1-[(2,4-difluoro-3-methylphenyl)methyl]-1-(1-methylpiperidin-4-yl)-3-{[4-(propan-2-yloxy)phenyl]methyl}urea; Trifluoroacetic Acid]"
16,63.1,"Cc1cc(OC(C)C)ccc1CNC(=O)N(Cc1ccc(F)cc1F)C1CCN(C)CC1 [Example 116, 1-[(2,4-difluorophenyl)methyl]-3-{[2-methyl-4-(propan-2-yloxy)phenyl]methyl}-1-(1-methylpiperidin-4-yl)urea; Hemitartrate]"

row,Compound,Ki [nM]
1,"CC(C)Oc1ccc(CNC(=O)N(Cc2ccc(F)cc2F)[C@H]2C[C@H]3CC[C@@H](C2)N3C)cc1 [Example 84, 3-[(2,4-difluorophenyl)methyl]-3-[(1R,3R,5S)-8-methyl-8-azabicyclo[3.2.1]octan-3-yl]-1-{[4-(propan-2-yloxy)phenyl]methyl}urea; Trifluoroacetic Acid]",50.1
2,"CC(C)C(C)(O)COc1ccc(CNC(=O)N(Cc2ccc(F)cc2F)C2CCN(C)CC2)cc1 (centres unmarked) [Example 87, 1-[(2,4-difluorophenyl)methyl]-3-{[4-(2-hydroxy-2,3-dimethylbutoxy)phenyl]methyl}-1-(1-methylpiperidin-4-yl)urea; Trifluoroacetic Acid]",10
